Assay results as given in patent publication US11865103B2, “Methods of treating disorders associated with glycosylation defective proteins” (CASE WESTERN RESERVE UNIVERSITY, priority 2016, dated 2024).

System: hair cells of hCLRN1^N48K-YFP; clrn1^KO/KO larvae
Test: Extracellular microphonic potentials of lateral line neuromast hair cells
Type: in vivo, zebrafish
Settings: 0.4 uM ART 4 hours/day from 3 dpf to 6 dpf; recorded at 6 dpf; untreated 7.286
Method: Zebrafish larvae at 6 dpf were anesthetized using MS-222 (Sigma-Aldrich) dissolved in a standard bath solution containing 120 mM NaCl, 2 mM KCl, 10 mM HEPES, 2 mM CaCl2, and 0.7 mM NaH2PO4 adjusted to pH 7.2. The larvae were then secured in a recording chamber using dental floss tie downs (Ricci and Fettiplace, 1997). Their blood flow and heart rate were visually observed to assess viability using an upright Olympus BX51WI microscope. Recordings were made with a PC-505B amplifier (Warner Instruments) and a PCI-6221 digitizer (National Instruments). Images were taken with a Grasshopper3 CMOS camera (Point Grey) and processed with software provided by the manufacturer. To record the activity of hair cells from the lateral line neuromasts, the cupula of neuromasts were deflected with a fluid jet placed ˜50 μm from the neuromast (Trapani and Nicolson, 2010) and controlled by an HSPC-1 (ALA Scientific Instruments) that delivered sinusoidal stimuli of 50 Hz. Microphonic potentials were recorded at room temperature (22° C.). […] Microphonic potentials were recorded using a jClamp for Windows (SciSoft, license: Joseph Santos-Sacchi, Yale University, New Haven, CT) in current-clamp mode, amplified by 20 (SIM983; Stanford 37 Research), and low-pass filtered at 200 Hz. […]

C[C@@H]1CC[C@H]2[C@@H](C)C(=O)O[C@@H]3O[C@@]4(C)CC[C@@H]1[C@]32OO4 [ART, Artemisinin] was tested. Which “Extracellular microphonic potentials (Mean±SEM)” value did it give?
The value was 9.529 μV.
